Experimental data: US10639345B2, “Compositions for preserving photoreceptor cells, retinal pigment epithelial cells, or visual function” (Massachusetts Eye and Ear Infirmary, priority 2010, dated 2020)
Where a SMILES comes first, the peptide text is derived from it. The star is where a group is joined. Cbz = O=C(OCc1ccccc1)*; CH2F = FC*

Tests used:
photoreceptors [1] = assay: TUNEL-positive cells after retinal detachment in RIP-3−/− mice; type: in vivo; conditions: three days after retinal detachment
Method: The role of RIP-3 in RIP-mediated programmed necrosis in photoreceptor loss after retinal detachment was investigated in RIP-3 knockout (RIP-3−/−) mice. TUNEL assays were used to measure the amount of apoptotic and necrotic cell death (Grasl-Kraupp et al., HEPTALOGY (1995) 21(5):1465-8). TUNEL and quantification of TUNEL positive cells in ONL were performed as described above by using the ApopTag Fluorescein In Situ Apoptosis Detection Kit (Millipore, Billerica, Mass.).

photoreceptors [2] = assay: In vivo PI labeling of photoreceptors after retinal detachment in RIP-3−/− retinas; design: species or system RIP-3−/− mice; conditions: day 3 after retinal detachment
Method: (§1) In vivo propidium iodide (PI) staining was performed by injecting 5 μl of PI (50 μg/ml) into the subretinal space three days after retinal detachment. After two hours, the eyes were enucleated and 10 μm thick cryosections were cut, air-dried, and fixed in 100% ethanol. DAPI was used to counterstain the nuclei. The center of the detached retina was photographed by fluorescence microscope, and the number of PI-positive cells in ONL was analyzed by ImageJ software.
FIG. 8C-D show PI staining (FIG. 8C) and quantification of PI-positive photoreceptors (FIG. 8D) on day 3 after retinal detachment in retina treated with vehicle, Z-VAD or Nec-1 (a Nec-1 of Formula I-C) and Z-VAD in RIP-3−/− retina (n=5-6; C and D). *, P<0.05; **, P<0.01. Scale bar, 100 μm.

RIP-3−/− RPE cells = assay: Viability of RIP-3−/− RPE cells treated with poly I:C (Cell Counting Kit-8); type: cell-based, mice
Method: (§2) As described in Example 11, primary RPE cells were extracted from the retina of mice and cultured in the presence of 5 μg/ml of poly I:C for 48 hours or with PBS. Cell viability was measured using Cell Counting Kit-8 (Dojindo Laboratories, Kumamoto, Japan). This assay is based on the cleavage of 2-(2-methoxy-4-nitrophenyl)-3-(4-nitrophenyl)-5-(2,4-disulfophenyl)-2H-tetrazolium, monosodium salt (WST-8) by the mitochondrial dehydrogenase enzyme to produce a formazan dye. After incubation with WST-8 for two hours at 37° C., absorbance was measured at 450 nm to determine cell viability.
Without poly I:C treatment, the viability of RPE cells was similar in WT and RIP-3−/− cells.

Fas-L = assay: Fas ligand expression after retinal detachment (real-time PCR); type: in vivo; conditions: compared to vehicle treatment
Method: Total RNA extraction and reverse transcription were performed as previously reported (Nakazawa T et al. (2006) MOL VIS 12:867-878; Hisatomi T et al. (2008). J CLIN INVEST 118:2025-2038). A real-time PCR assay was performed with Prism 7700 Sequence Detection System (Applied Biosystems, Foster City, Calif.). TaqMan Gene Expression assays were also used to check the expression of MCP-1 (Rn00580555_m1), TNF-α (Rn99999017_m1), and Fas-L (Rn00563754_m1). For relative comparison of each gene, the Ct value of real-time PCR data was analyzed with the ΔΔCt method and normalized by an endogenous control (18S ribosomal RNA).
TNF-α and Fas-L are potent inducer of programmed necrosis as well as apoptosis (Degterev A (2005) NAT CHEM BIOL 1:112-119). The effectiveness of a TNF-α blockade after retinal detachment was measured. […] However, other factors may also contribute to photoreceptor death, as the effect of TNF-α blockade was not as effective as that of Nec-1+Z-VAD treatment. Further, Fas ligand expression increased in Z-VAD-treated retina after retinal detachment compared to vehicle treatment (FIG. 12C), and may play a role in promoting necrotic photoreceptor death in Z-VAD-treated eyes.

photoreceptors [3] = assay: In vivo propidium iodide staining of photoreceptors after retinal detachment, wild-type retina; design: species or system mouse; conditions: three days after retinal detachment
Method: as §1
(*, P<0.05; **, P<0.01; scale bar, 100 μm.)

photoreceptors [4] = assay: Normalized ONL thickness ratio after retinal detachment in RIP-3−/− mice
Method: TUNEL assays were used to measure the amount of apoptotic and necrotic cell death (Grasl-Kraupp et al., HEPTALOGY (1995) 21(5):1465-8). TUNEL and quantification of TUNEL positive cells in ONL were performed as described above by using the ApopTag Fluorescein In Situ Apoptosis Detection Kit (Millipore, Billerica, Mass.). The ratio of the ONL thickness to the thickness of neuroretina in the central area of the detached retina was determined by National Institutes of Health ImageJ software and standardized by that in the attached retina. The data are expressed as normalized ONL thickness ratio [(ONL/neuroretina thickness in detached retina)/(ONL/neuroretina thickness in attached retina)].

photoreceptors [5] = assay: TUNEL-positive photoreceptors in ONL after experimental retinal detachment; type: in vivo, rat; conditions: day three after retinal detachment; subretinal Z-VAD 300 μM and/or Nec-1 400 μM at detachment
photoreceptors [6] = assay: Poly I:C-induced dry AMD model, ONL thickness; type: in vivo, mice
Source text: In this example, the mechanism of photoreceptor cell death in dry AMD was investigated using a polyinosinic:polycytidylic acid (Poly I:C)-induced dry AMD model (Yang et al. (2009) NEJM 359(14):1456-63). Poly I:C is a synthetic double-stranded RNA (dsRNA) analog that activates toll-like receptor 3 (TLR3) signaling (FIG. 20A). Furthermore, dsRNA are known to exist in the drusen of human AMD patients. As depicted in FIG. 20A, activation of the TLR3 signaling results in activation of RIP-1 kinase pathway. […] In the experiments described herein, 2-3 μl of Poly I:C (1 mg/ml) was injected into the subretinal space of the eye (e.g., approximately 2-3 μg of Poly I:C was administered to the eye) to induce AMD.
The thickness of the outer nuclear layer (ONL) was also determined in WT or RIP-3−/− mice at 14 days following treatment with poly I:C. Sections were randomly selected from either WT or RIP-3−/− mice following poly I:C treatment and the retina was photographed. The ONL thickness was measured in each section by masked observers.
To determine the effect of Nec-1 and a pan-caspase inhibitor in the treatment of AMD, TUNEL assay was performed to assess photoreceptor cell death in the poly I:C induced AMD model. […] The thickness of ONL was also measured.

photoreceptors [7] = assay: Normalized ONL thickness ratio after experimental retinal detachment; type: in vivo, rat; conditions: subretinal Z-VAD 300 μM and/or Nec-1 400 μM
Method: Photoreceptor death was also assessed by TUNEL analysis at three days after retinal detachment in retina treated with either vehicle, Nec-1, Z-VAD or Nec-1+Z-VAD. […] Nine sections for each eye specimen were randomly selected, and the central area of detached retina and the mid-peripheral region of attached retina were photographed. The ONL thickness ratio was measured at ten points in each section by masked observers. […] (GCL: ganglion cell layer, INL: inner nuclear layer. *, P<0.05. Scale bar, 100 μm). […]
TNF-α protein contents in rat retina were determined using ELISA Kit for rat TNF-α (Invitrogen, Carlsbad, Calif.). Goat anti-mouse/rat TNF-α blocking antibody was purchased from R&D Systems (Minneapolis, Minn.). The rat eyes were subretinally injected with 1% of sodium hyaluronate containing 0.1 mg/ml of anti-TNF-α antibody or control antibody.

primary RPE cells = assay: Viability of primary RPE cells treated with poly I:C (Cell Counting Kit-8); type: cell-based, mice; conditions: WT primary RPE cells, 5 μg/ml poly I:C for 48 hours
Method: as §2

COC(=O)CC(NC(=O)C(C)NC(=O)C(NC(=O)OCc1ccccc1)C(C)C)C(=O)CF (stereo not drawn) [Z-VAD, Benzyloxycarbonyl-Val-Ala-Asp(OMe)-fluoromethylketone] (Cbz-Val-Ala-Asp(OMe)-CH2F; configuration not given here)
number of TUNEL-positive cells (photoreceptors [1]): 407.7±188.9 cells/mm^2
number of photoreceptors with disrupted plasma membrane (in vivo PI-labeling) (photoreceptors [2]): not increased
viability of RPE cells (RIP-3−/− RPE cells): protected from cell death
Fas ligand expression (Fas-L): increased
number of PI-positive photoreceptors in the ONL (photoreceptors [3]): 817.4±104.2 cells/mm^2
ONL thickness ratio (photoreceptors [4]; day 3 and 5 after retinal detachment, RIP-3−/− retinas): augmented
normalized ONL thickness ratio (photoreceptors [4]; five days after retinal detachment, RIP-3−/− mice): 0.841±0.042
number of TUNEL-positive cells in the ONL (photoreceptors [5]): 1134.7±297.5 cells/mm^2
ONL thickness (photoreceptors [6]): minimal effect
normalized ONL thickness ratio (photoreceptors [7]; five days after retinal detachment): 0.54±0.10
normalized ONL thickness ratio (photoreceptors [7]; three days after retinal detachment): 0.72±0.08
viability of RPE cells (primary RPE cells): did not protect WT RPE cells
